One test addresses T1, Caspase-1 (Homo sapiens, UniProt P29466).
T1 sequence (P29466 120-297 limits assumed): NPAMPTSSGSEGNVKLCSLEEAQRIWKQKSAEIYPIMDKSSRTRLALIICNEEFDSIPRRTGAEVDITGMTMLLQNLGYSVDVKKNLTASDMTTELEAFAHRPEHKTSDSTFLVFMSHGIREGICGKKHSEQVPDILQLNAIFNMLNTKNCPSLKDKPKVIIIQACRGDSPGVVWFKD
T1 sequence (P29466 317-404 limits assumed): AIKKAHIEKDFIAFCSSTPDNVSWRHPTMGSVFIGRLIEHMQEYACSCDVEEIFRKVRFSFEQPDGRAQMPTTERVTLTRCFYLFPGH
Kind of test: Caspase-1 enzyme inhibition (Ki). The test is classed as biochemical. The gist of the method: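 Ki obtained by fitting rate versus inhibitor concentration to the Morrison tight-binding equation for competitive inhibitors, with pNA release read at 405 nm at 37 °C. Substrate Suc-YVAD-pNA (80 μM final) added after 15 min enzyme–inhibitor preincubation in Tris pH 7.5 buffer with DTT and CHAPS.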

The subject of test [1] is Human Peripheral Blood Mononuclear Cells (PBMC), mature IL-1β. Kind of test: PBMC cell assay: IL-1β assay with human peripheral blood mononuclear cells. As to conditions: LPS-stimulated human PBMC, mature IL-1β in supernatant by ELISA. The test is classed as cell-based. In short, it runs like this:
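Donor PBMC (suspension at 6×10^6 cells/ml) or adherent-enriched monocytes were stimulated with 5 ng/ml LPS (final) alongside 5–6 compound dilutions bracketing the ICE Ki, at 0.1% DMSO final, for 16–18 hr at 37° C, 5% CO2. Mature IL-1β in supernatants was measured by ELISA; IC50 was calculated relative to LPS-only controls.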

Where [2] appears, read: substrate Suc-YVAD-pNA 80 μM, 37° C., pH 7.5.

Structures are written as SMILES. Where two headings read alike, the source gives them in different places. Where a SMILES comes first, the peptide text is derived from it. The star is where a group is joined. Bz = O=C(c1ccccc1)*

In turn, `CC(C)[C@H](NC(=O)c1nccc2ccccc12)C(=O)N1CCC[C@H]1C(=O)N[C@H](C=O)CC(=O)O` [Example 5c] had a Ki at Caspase-1 (setting [2]) of under 10 nM. The same molecule displayed an IC50 in test [1] of 500 to 1000 nM.
Take `CC(C)[C@H](NC(=O)c1cccc2c1-c1ccccc1C2=O)C(=O)N1CCC[C@H]1C(=O)N[C@H](C=O)CC(=O)O` [Example 5k]: the Ki on Caspase-1 and at Caspase-1 (setting [2]) was under 10 nM each time. This molecule gave an IC50 in test [1] of over 2000 nM.
Take `CC(C)[C@H](NC(=O)c1cc(Cl)c(O)c(Cl)c1)C(=O)N1CCC[C@H]1C(=O)N[C@H](C=O)CC(=O)O` [Example 5m]: the Ki on Caspase-1 and on Caspase-1 (setting [2]) was under 10 nM in each case. Besides, the IC50 in test [1] was under 500 nM.
`Cc1cc(C(=O)N[C@@H](C)C(=O)N2CCC[C@H]2C(=O)N[C@H](C=O)CC(=O)O)cc(C)c1O` [Example 7c] had a Ki at Caspase-1 (setting [2]) of under 10 nM. In test [1], this molecule registered an IC50 of under 500 nM.
Molecule `C[C@H](NC(=O)c1nccc2ccccc12)C(=O)N1CCC[C@H]1C(=O)N[C@H](C=O)CC(=O)O` [Example 7d] yielded a Ki at Caspase-1 (setting [2]) of under 10 nM. The same molecule registered an IC50 in test [1] of under 500 nM.
For `COc1ccc(C(=O)N[C@@H](C)C(=O)N2CCC[C@H]2C(=O)N[C@H](C=O)CC(=O)O)cc1` [Example 7f], the Ki on Caspase-1 (setting [2]) lay in the range of 10 to 1000 nM. This molecule gave an IC50 in test [1] of over 2000 nM.
On to `COCC(=O)N1CCN(C(=O)[C@H](C)NC(=O)c2ccc(N)c(Cl)c2)[C@H](C(=O)N[C@H](C=O)CC(=O)O)C1` [Example 18f], for which the Ki at Caspase-1 (setting [2]) lay within 10 to 1000 nM. This molecule also yielded an IC50 in test [1] of over 2000 nM.
For the molecule `O=C[C@H](CC(=O)O)NC(=O)[C@@H]1CCCN1C(=O)[C@H](Cc1cccnc1)NC(=O)c1nccc2ccccc12` [Example 20f], the Ki at Caspase-1 (setting [2]) is under 10 nM. Besides, in test [1], the IC50 is 500 to 1000 nM.
In turn, `CSC[C@H](NC(=O)c1nccc2ccccc12)C(=O)N1CCC[C@H]1C(=O)N[C@H](C=O)CC(=O)O` [Example 20g] gave a Ki at Caspase-1 (setting [2]) of under 10 nM. The same molecule showed an IC50 in test [1] of under 500 nM.
For `CS(=O)(=O)CC[C@H](NC(=O)c1nccc2ccccc12)C(=O)N1CCC[C@H]1C(=O)N[C@H](C=O)CC(=O)O` [Example 20h], on Caspase-1 (setting [2]), the Ki was under 10 nM. Also, the IC50 in test [1] is under 500 nM.
As for `CC[C@H](NC(=O)c1cc(Cl)c(O)c(Cl)c1)C(=O)N1CCC[C@H]1C(=O)N[C@H](C=O)CC(=O)O` [Example 20m], the Ki at Caspase-1 (setting [2]) was under 10 nM. Also, the half-maximal inhibitory concentration (IC50) in test [1] lay within 500 to 1000 nM.
The matching figures for `CC(C)[C@H](NC(=O)c1ccccc1)C(=O)N1CC(c2ccccc2)[C@H]1C(=O)N[C@H](C=O)CC(=O)O` (stereo partly drawn) [Example 24a]: under 10 nM and 500 to 1000 nM.
The molecule `CC(C)[C@H](NC(=O)c1nccc2ccccc12)C(=O)N1CC(c2ccccc2)[C@H]1C(=O)N[C@H](C=O)CC(=O)O` (stereo partly drawn) [Example 24c] came in with a Ki on Caspase-1 (setting [2]) of under 10 nM. Also, in test [1], the IC50 is under 500 nM.
As to `CC(C)[C@H](NC(=O)c1nccc2ccccc12)C(=O)N1CC[C@H](C)[C@H]1C(=O)N[C@H](C=O)CC(=O)O` [Example 26c], the Ki on Caspase-1 (setting [2]) was under 10 nM. Moreover, the IC50 in test [1] lay in the range of 500 to 1000 nM.
Take `CC(C)[C@H](NC(=O)c1nccc2ccccc12)C(=O)N1C2CCCCC2C[C@H]1C(=O)N[C@H](C=O)CC(=O)O` (stereo partly drawn) [Example 26e]: at Caspase-1 (setting [2]), the Ki was under 10 nM. In addition, in test [1], the IC50 is under 500 nM.
With `CC(C)[C@H](NC(=O)c1nccc2ccccc12)C(=O)N1[C@@H](c2ccccc2)CC[C@H]1C(=O)N[C@H](C=O)CC(=O)O` [Example 26f], the Ki at Caspase-1 (setting [2]) is under 10 nM. In test [1], this molecule showed an IC50 of under 500 nM.
The matching figures for `C[C@H](NC(=O)c1ccc(N)c(Cl)c1)C(=O)N1CC(F)(F)C[C@H]1C(=O)N[C@H](C=O)CC(=O)O` [Example 27a]: 10 to 1000 nM and under 500 nM.
The molecule `CC(C)[C@H](NC(=O)c1ccccc1)C(=O)N[C@@H](C)C(=O)N[C@H](C=O)CC(=O)O` [Example 29a] (Bz-Val-Ala-Asp-aldehyde) yielded a Ki at Caspase-1 (setting [2]) of under 10 nM. The molecule also came in with an IC50 in test [1] of under 500 nM.
`C[C@H](NC(=O)[C@@H](NC(=O)c1nccc2ccccc12)C(C)(C)C)C(=O)N[C@H](C=O)CC(=O)O` [Example 29g] had a Ki at Caspase-1 (setting [2]) of under 10 nM. In test [1], this molecule registered an IC50 of 500 to 1000 nM.
For the molecule `COc1ccc(C(=O)NC(C(=O)N2N=C(C(C)(C)C)SC2C(=O)NC(C=O)CC(=O)O)C(C)C)cc1` (stereo not drawn) [Example 46b], the Ki at Caspase-1 (setting [2]) is under 10 nM. Also, in test [1], the IC50 is over 2000 nM.
The matching figures for `COc1ccc(C(=O)NC(C(=O)N2CCCC2C(=O)NC(C=O)CC(=O)O)C(C)C)cc1` (stereo not drawn) [Example 57, 3-({1-[2-(4-Methoxy-benzoylamino)-3-methyl-butyryl]-pyrrolidine-2-carbonyl}-amino)-4-oxo-butyric acid]: under 10 nM and 500 to 1000 nM.
In the case of `Cc1cc(C(=O)N[C@H](C(=O)N2CCCC2C(=O)N[C@H](C=O)CC(=O)O)C(C)C)cc(C)c1O` (stereo partly drawn) [Example 65, 3-({l-[2-(4-Hydroxy-3,5-dimethyl-benzoyiamino)-3-methyl-butyryl]-pyrrolidine-2-carbonyl}-amino)-4-oxo-butyric acid], the Ki at Caspase-1 (setting [2]) was under 10 nM. Also, the IC50 in test [1] is 500 to 1000 nM.
On the same counts, the results for `COc1ccc(C(=O)NC(C(=O)N2CCCC2C(=O)NC(C=O)CC(=O)O)C(C)(C)C)cc1` (stereo not drawn) [Example 69, 3-({1-[2-(4-Methoxy-benzoylamino)-3,3-dimethyl-butyryl]-pyrrolidine-2-carbonyl}-amino)-4-oxo-butyric acid] are under 10 nM and under 500 nM.
For `C[C@H](NC(=O)c1cccc2c1-c1ccccc1C2=O)C(=O)N1CCC[C@H]1C(=O)N[C@H](C=O)CC(=O)O` [Example 122a], at Caspase-1 (setting [2]), the Ki is under 10 nM. In addition, the IC50 in test [1] was over 2000 nM.
The molecule `C[C@H](NC(=O)c1ccc(N)c(Cl)c1)C(=O)N1CCC[C@H]1C(=O)N[C@H](C=O)CC(=O)O` [Example 122b, 3-({-[2-(4-Amino-3-chloro-benzoylamino)-propionyl]-pyrrolidine-2-carbonyl}-amino)-4-oxo-butyric acid] had a Ki at Caspase-1 (setting [2]) of under 10 nM. The IC50 in test [1] was in the range of 500 to 1000 nM.
For `COc1c(Cl)cc(C(=O)N[C@@H](C)C(=O)N2CCC[C@H]2C(=O)N[C@H](C=O)CC(=O)O)cc1Cl` [Example 122c, 3-({1-[2-(3,5-Dichloro-4-methoxy-benzoylamino)-propionyl]-pyrrolidine-2-carbonyl}-amino)-4-oxo-butyric acid], the Ki on Caspase-1 (setting [2]) was under 10 nM. The IC50 in test [1] was over 2000 nM.
For `COc1c(C)cc(C(=O)N[C@@H](C)C(=O)N2CCC[C@H]2C(=O)N[C@H](C=O)CC(=O)O)cc1C` [Example 122d, 3-({1-[2-(4-Methoxy-3,5-dimethyl-benzoylamino)-propionyl]-pyrrolidine-2-carbonyl}-amino)-4-oxo-butyric acid], the Ki on Caspase-1 (setting [2]) is under 10 nM. The molecule also had an IC50 in test [1] of 500 to 1000 nM.
In turn, `CC(=O)Nc1ccc(C(=O)N[C@@H](C)C(=O)N2CCC[C@H]2C(=O)N[C@H](C=O)CC(=O)O)cc1Cl` [Example 122f, 3-({1-[2-(4-Acetylamino-3-chloro-benzoylamino)-propionyl]-pyrrolidine-2-carbonyl}-amino)-4-oxo-butyric acid] yielded a Ki at Caspase-1 (setting [2]) of under 10 nM. The molecule also gave an IC50 in test [1] of 500 to 1000 nM.
`C[C@H](NC(=O)c1cc(Cl)c(O)c(Cl)c1)C(=O)N1CCC[C@H]1C(=O)N[C@H](C=O)CC(=O)O` [Example 122k, 3-({1-[2-(3,5-Dichloro-4-hydroxy-benzoylamino)-propionyl]-pyrrolidine-2-carbonyl}-amino)-4-oxo-butyric acid] displayed a Ki at Caspase-1 (setting [2]) of under 10 nM. The 50% inhibitory concentration (IC50) in test [1] was under 500 nM.

(Values after patent US20030232986A1, “Inhibitors of caspases” (Vertex Pharmaceuticals Incorporated, priority 1998, published 2003).)
